# Reference: patent US12612408B2, “Pyrazolone-fused pyrimidine compound, preparation method for same and applications thereof” (SHANGHAI PHARMACEUTICALS HOLDING CO., LTD., priority 2019, dated 2026)
# Experiments:
# WEE1 kinase = target: T1, WEE1 kinase (Homo sapiens, UniProt P30291); test: Inhibitory effect of compound on WEE1 kinase in vitro (ELISA); assay type: biochemical; settings: ATP concentration of Km
# T1 construct: purchased CarnaBiosciences, Inc. 05-177
# Procedure: The tested compounds were screened on WEE1 kinase with ATP concentration of Km by ELISA. Compounds were screened on WEE1 kinase to evaluate the kinase inhibitory activity of the tested compounds. In the detection process, the initial concentration of the tested compounds was all selected as 100 nM, and each compound was selected with 6 gradient dilution concentrations, the gradient dilution ratio was 4-fold, and two replicate wells were detected for each concentration, MK1775 was used as the standard control.
# WEE1, purchased from CarnaBiosciences, Inc., Item No. 05-177; dimethyl sulfoxide, purchased from Sigma-Aldrich, Item No. D8418; ATP, purchased from Sigma-Aldrich, Item No. A7699; DTT solution, purchased from Sigma-Aldrich, Item No. 43816; protein tyrosine kinase (PTK) substrate (poly-Glu-Tyr), purchased from Sigma-Aldrich, Item No. P4476; P-Tyr (PY99), purchased from Santa Cruz, Item No. sc-7020; Anti-mouse IgG HRP-linked Antibody, purchased from Santa Cruz, Item No. 7076S; TMB liquid Substrate System, purchased from Sigma-Aldrich, Item No. T0440; Costar Stripwell Microplate No Lid 1×8 Flat Bottom, Certified High Binding, purchased from Sigma-Aldrich, Item No. 42592; 96-well compound plate, purchased from Thermo Scientific, Item No. 267245.
# • 1. Coating substrate: 1) An appropriate volume of substrate storage solution protein tyrosine kinase (PTK) substrate (poly-Glu-Tyr) was taken, diluted 10 times with PBS, and the concentration was diluted from […]. The mixture was added to a high adsorption 96-well plate at 125 μL per well. The plate was placed in an incubator at 37° C. for overnight coating. 2) After 24 hours, the 96-well plate was taken out, the liquid in the 96-well plate was poured out, cleaned with washing buffer for 3 times, and the incubator at 37° C. was inverted and dried for 2 hours. • 2. Compound preparation and transfer: 1) compound dilution: 10 mM of the test compound storage solution was taken, the compound in 96-well compound plate was diluted with DMSO in multiple steps to obtain the initial concentration of 100× compound as the first concentration, and then DMSO was used for 4-fold gradient dilution, for a total of 6 concentrations; after that, 2 μL of the gradient dilution solution was added to 48 μL of 1× reaction buffer respectively to prepare 4× compound; 2) 4× compounds were transferred: 10 μL of 4× compounds from the 96-well compound plate configured in the previous step were transferred into the dried high adsorption 96-well plate; 10 μL of the following liquids were added to the compound-free control wells and ATP-control wells: 2 μL of DMSO was added to 48 μL of 1× reaction buffer. • 3. Enzyme reaction stage: 1) WEE1 kinase and ATP were prepared into 2× enzyme solution and 4×ATP solution respectively with 1× reaction buffer. In this screening, the final concentration of WEE1 kinase was: 0.15 ng/μL and the final concentration of ATP was: […]; 2) 20 μL of enzyme solution of 2 was added to the high adsorption 96-well plate; 3) 10 μL of 4×ATP solution was added to the high adsorption 96-well plate and 10 μL of 1× reaction buffer was added to the ATP-control group; 4) the plate was placed in HERAEUS Multifuge X1R centrifuge at 2000 rpm for 20 s and then placed at room temperature and reacted for 60 min. • 4. Reaction termination stage: 1) the reaction mixture in the plate was poured out, 200 μL of washing buffer was added to each well, and washed for 5 times; the primary antibody P-Tyr (PY99) (dilution ratio 1:2000) was added, 100 μL per well, at room temperature for 30 min. 2) The primary antibody in the plate was poured out, 200 μL of washing buffer was added to each well, and washed for 5 times; the second antibody Anti-mouse IgG HRP-linked Antibody (dilution ratio 1:2000) was added, 100 μL per well, at room temperature for 30 min.
# [1] = Bioavailability test in vivo in mice (pharmacokinetics, iv and intragastric); design: species or system ICR mice
# Procedure: 404.6 μL of DMSO was added to the compound powder of the present disclosure until the compound was completely dissolved, and 50 mg/mL mother liquor was prepared in a clarified state.
# The compound of the present disclosure: 24 μL of mother liquor was accurately measured, diluted to 4 mL according to the ratio of 0.9% normal saline:PEG400=8:2, the preparation concentration was 0.3 mg/mL, the solution was in a clarified state, and it was used as intravenous administration solution. In addition, 80 μL mother liquor was accurately measured, and 0.5% CMC-Na was added to 8 mL to grind it into a uniform suspension with a concentration of 0.5 mg/mL, which was used as intragastric administration solution.
# Intravenous group: 24 ICR mice, 20±2 g, were given the intravenous administration solution of the compound of the present disclosure by intravenous injection, with the volume of 10 mL/kg, with the dose of 3 mg/kg, the blood was taken from the fundus venous plexus of mice, 2, 5, 15, 30, 60, 90, 120, 240, 360, 480, 600 and 1440 minutes before and after administration.
# Intragastric group: 24 ICR mice, 20±2 g, were given the intragastric administration solution of the compound of the present disclosure by intragastric injection, with the volume of 20 mL/kg, with the dose of 10 mg/kg, the blood was taken from the fundus venous plexus of mice, 5, 15, 30, 60, 90, 120, 240, 360, 480, 600 and 1440 minutes before and after administration.
# Blood sample was centrifuged at 8000 rpm for 5 min, and the plasma was stored in a centrifuge tube at −20° C. for later use.
# 300 μL of acetonitrile containing internal standard (Propranolol, 25 ng/mL) was added to 50 μL of plasma samples to precipitate protein, vortexed for 10 min, 6000 g, 4° C., centrifuged for 10 min; the supernatant before intravenous injection for 1 hour was taken, diluted 10 times with acetonitrile containing internal standard, the rest supernatant was kept undiluted, centrifuged for 10 min again at 6000 g, 4° C., and the supernatant was taken and then injected into a 96-well plate.
# (§1) Dose; peak concentration: Cmax; peak time: Tmax; area under the drug-time curve from AUClast 0 to time t; half-life: T1/2; mean retention time: MRT; clearance: Cl; apparent distribution volume: Vz; steady-state distributed volume: Vss; absolute bioavailability: F.
# The pharmacokinetic parameters of the compound in mice after intravenous injection or intragastric administration were shown in Table 4 and Table 5 below.
# [2] = Bioavailability test in vivo in cynomolgus monkey (pharmacokinetics, IV and PO); settings: cynomolgus monkeys
# Procedure: Twelve male Non-Naïve cynomolgus monkeys were purchased from GuangxiGuidong Primate Development Experiment Co. LTD.
# 54.31 mg of I-8-1 was accurately weighed, and 1.08 mL of DMSO was added, then the mixture was vortexed for 1 min, sonicated for 15 min, and then diluted to 36 mL according to the ratio of 10% HP-β-cyclodextrin (prepared by normal saline): PEG=8:2, vortexed for 1 min. A colorless clarified administration solution (the pH value was about 7) at a concentration of 1.5 mg/mL was prepared for intravenous administration to Group 1.
# 300.9 mg of I-8-1 was accurately weighed, and 75 mL of 0.5% CMC-Na was added, the mixture was fully ground and stirred for 5 min. A white suspension (the pH value was about 7) at a concentration of 4 mg/mL was prepared for oral administration to Group 2.
# 54.05 mg of AZD1775 was accurately weighed, and 1.08 mL of DMSO was added, then he mixture was vortexed for 1 min, sonicated for 15 min, and then diluted to 36 mL according to the ratio of 10%-D-cyclodextrin (prepared by normal saline): PEG=8:2, vortexed for 1 min. A yellow clarified administration solution (the pH value was about 7) at a concentration of 1.5 mg/mL was prepared for intravenous administration to Group 3.
# 300.7 mg of AZD1775 was accurately weighed, and 75 mL of 0.5% CMC-Na was added, the mixture was fully ground and stirred for 5 min. A yellow suspension (the pH value was about 7) at a concentration of 4 mg/mL was prepared for oral administration to Group 4.
# Before administration, all animals were fasted overnight (approximately 12 hours) and fed as required and administered according to the table below.
# Intravenous group: before administration (0 h), 0.033 h, 0.083 h, 0.25 h, 0.5 h, 1 h, 1.5 h, 2 h, 4 h, 6 h, 8 h, 12 h, 24 h after administration.
# Oral group: before administration (0 h), 0.083 h, 0.25 h, 0.5 h, […], 2 h, 4 h, 6 h, 8 h, 12 h, 24 h after administration.
# Blood samples were collected by puncture through lower limb vein or other suitable blood vessels at 1 mL/time point (3 mL of blood samples were collected from each animal before administration), anticoagulated with heparin sodium, and placed on ice after collection. Plasma was separated at 2200 g/min, 10 min, 2-8° C., plasma samples were stored in a −80° C. refrigerator before being transferred to the client. Plasma samples are stored in dry ice and transferred to the client. The final treatment of the sample will be recorded in the experimental record.
# 300 μL of acetonitrile was added to 50 μL of plasma samples containing internal standard (Propranolol, 25 ng/mL) to precipitate protein, vortexed for 10 min, centrifuged at 6000 g for 10 min, after I-8-1&AZD1775 intravenous injection group was diluted 10 times with internal standard acetonitrile (Propranolol, 25 ng/mL) at the time point before 1 hour, the remaining supernatant was not diluted, centrifuged again at 6000 g at 4° C. for 10 min, and the supernatant was taken and injected into a 96 well plate.
# as §1
# The pharmacokinetic parameters of the compound in cynomolgus monkeys after intravenous injection or intragastric administration were shown in Table 6 below.
# [3] = ICR, mouse, plasma, iv, 3 mg/kg
# [4] = ICR, mouse, plasma, po (intragastric), 10 mg/kg
# [5] = male, cynomolgus monkey, plasma, iv, 3 mg/kg
# [6] = male, cynomolgus monkey, plasma, po, 20 mg/kg, fasted
# T1 sequence (P30291 whole entry): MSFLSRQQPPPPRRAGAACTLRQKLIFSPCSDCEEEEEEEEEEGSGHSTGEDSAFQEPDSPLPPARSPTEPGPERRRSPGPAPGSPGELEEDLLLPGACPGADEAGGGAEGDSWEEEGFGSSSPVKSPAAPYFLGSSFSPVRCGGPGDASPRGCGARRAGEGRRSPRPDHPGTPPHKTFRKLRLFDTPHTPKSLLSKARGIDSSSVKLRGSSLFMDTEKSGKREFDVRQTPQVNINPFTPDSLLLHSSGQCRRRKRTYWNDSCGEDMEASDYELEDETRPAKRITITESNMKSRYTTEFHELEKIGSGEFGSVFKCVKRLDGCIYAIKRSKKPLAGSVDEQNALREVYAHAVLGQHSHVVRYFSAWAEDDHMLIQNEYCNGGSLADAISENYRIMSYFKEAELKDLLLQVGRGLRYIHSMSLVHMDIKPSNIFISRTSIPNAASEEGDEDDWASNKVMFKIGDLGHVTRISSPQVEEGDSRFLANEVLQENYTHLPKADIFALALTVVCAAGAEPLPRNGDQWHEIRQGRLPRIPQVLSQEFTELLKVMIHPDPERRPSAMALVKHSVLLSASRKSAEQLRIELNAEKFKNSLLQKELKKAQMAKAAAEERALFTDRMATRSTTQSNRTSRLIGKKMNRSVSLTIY
compound,measurement,setting,value
"C=CCn1c(=O)c2cnc(Nc3ccc(C4CCC(N(C)C)CC4)cc3)nc2n1-c1cccc(C(C)(C)O)n1 (single isomer, unassigned) [Compound I-1-2]",IC50,WEE1 kinase,2.08 nM
"C=CCn1c(=O)c2cnc(Nc3ccc(C4CCC(N5CCCC5)CC4)cc3)nc2n1-c1cccc(C(C)(C)O)n1 (single isomer, unassigned) [Compound I-3-1]",IC50,WEE1 kinase,0.35 nM
"C=CCn1c(=O)c2cnc(Nc3ccc(C4CCC(N5CCCC5)CC4)cc3)nc2n1-c1cccc(C(C)(C)O)n1 (single isomer, unassigned) [Compound I-3-2]",IC50,WEE1 kinase,0.66 nM
"C=CCn1c(=O)c2cnc(Nc3ccc(C4CCC(N5CCC5)CC4)cc3)nc2n1-c1cccc(C(C)(C)O)n1 (single isomer, unassigned) [Compound I-8-2]",IC50,WEE1 kinase,3.52 nM
"C=CCn1c(=O)c2cnc(Nc3ccc(C4CCC(N(C)C)CC4)cc3)nc2n1-c1cccc(C2(O)COC2)n1 (single isomer, unassigned) [Compound I-15-1]",IC50,WEE1 kinase,1.52 nM
"C=CCn1c(=O)c2cnc(Nc3ccc(C4CCC(N(C)C)CC4)cc3)nc2n1-c1cccc(C2(O)COC2)n1 (single isomer, unassigned) [Compound I-15-2]",IC50,WEE1 kinase,1.68 nM
"C=CCn1c(=O)c2cnc(Nc3ccc(C4CCC(N5CCC5)CC4)cc3)nc2n1-c1cccc(C2(O)COC2)n1 (single isomer, unassigned) [Compound I-36-2]",IC50,WEE1 kinase,2.92 nM
"C=CCn1c(=O)c2cnc(Nc3ccc(N4CCN(C)CC4)cc3)nc2n1-c1cccc(C(C)(C)O)n1 [Control 1, reference compound]",Cmax,[1]; [3],774 ± 53.8 ng/mL
same,MRT,[1]; [3],0.42 ± 0.02 h
same,Tmax,[1]; [3],0.05 ± 0.03 h
same,clearance,[1]; [3],183 mL/min/kg
same,half-life,[1]; [3],0.65 ± 0.03 h
same,Vd,"[1]; ICR, mouse, plasma, iv, 3 mg/kg, iv, 3 mg/kg, read-out: Vss",4.58 ± 0.44 L/kg
same,Vd,"[1]; ICR, mouse, plasma, iv, 3 mg/kg, iv, 3 mg/kg, read-out: Vz",10.3 ± 1.12 L/kg
same,bioavailability,"[1]; ICR, mouse, plasma, po 10 mg/kg vs iv 3 mg/kg, read-out: F (absolute bioavailability)",16.7%
same,Cmax,[1]; [4],205 ± 124 ng/mL
same,MRT,[1]; [4],4.33 ± 0.28 h
same,Tmax,[1]; [4],0.33 ± 0.14 h
same,half-life,[1]; [4],3.1 ± 0.22 h
same,AUClast,"[1]; iv, 3 mg/kg",273.1 ± 21.34 (h) (ng/mL)
same,AUClast,"[1]; po (intragastric), 10 mg/kg",151.7 ± 62.14 (h) (ng/mL)
same,AUCextra,"[2]; iv, 3 mg/kg",47.62 ± 58.18 (h)*(ng/mL)
same,AUClast,"[2]; iv, 3 mg/kg",4494 ± 1719 (h)*(ng/mL)
same,AUCtot,"[2]; iv, 3 mg/kg",4542 ± 1777 (h)*(ng/mL)
same,thalf,"[2]; iv, 3 mg/kg",2.78 ± 0.26 h
same,AUCextra,"[2]; po, 20 mg/kg, fasted",8.46 ± 1.91 (h)*(ng/mL)
same,AUClast,"[2]; po, 20 mg/kg, fasted",8155 ± 818.2 (h)*(ng/mL)
same,AUCtot,"[2]; po, 20 mg/kg, fasted",8163 ± 819.7 (h)*(ng/mL)
same,thalf,"[2]; po, 20 mg/kg, fasted",2.03 ± 1.22 h
same,Vd,"[2]; male, cynomolgus monkey, plasma, iv, 3 mg/kg, iv, 3 mg/kg, read-out: Vss",4.33 ± 0.74 L/kg
same,Vd,"[2]; male, cynomolgus monkey, plasma, iv, 3 mg/kg, iv, 3 mg/kg, read-out: Vz",2.84 ± 0.76 L/kg
same,Cmax,[2]; [5],1200 ± 134 ng/mL
same,MRT,[2]; [5],6.53 ± 2.51 h
same,Tmax,[2]; [5],2.69 ± 4.6 h
same,clearance,[2]; [5],12 mL/min/kg
same,bioavailability,"[2]; male, cynomolgus monkey, plasma, po 20 mg/kg vs iv 3 mg/kg, read-out: BA (absolute bioavailability)",27.2%
same,Cmax,[2]; [6],1630 ng/mL
same,MRT,[2]; [6],3.58 ± 0.07 h
same,Tmax,[2]; [6],2 h
